Data: PMC9597362, “The thiophene α-terthienylmethanol isolated from Tagetes minuta inhibits angiogenesis by targeting protein kinase C isozymes α and β2” (Frontiers in Pharmacology, 2022)
Like-named read-outs stand apart in the source and are kept apart here.

Assays:
[1] = tested on: bovine aortic endothelial cells (BAECs); test: VEGF-induced tube formation assay; assay type: cell-based; conditions: for antiangiogenic activity in tube formation: pure compounds, maximum concentration 30 μM; for IC50: Bos taurus, BAEC
Description: The experiment was performed according to Arnaoutova and Kleinman ([Arnaoutova and Kleinman, 2010]). Briefly, BAECs (1.5 × 10^4 cells) were placed on a 96-well plate previously coated with Matrigel®. The plates were incubated for 18 h (37°C, 5% CO2) in the presence and absence of the tested extracts or the pure compounds, at a maximum concentration of 100 μg/ml and 30 μM, respectively, with the addition of VEGF (10 ng/ml) as angiogenic stimuli. […] Controls without or with ethanol (negative control) were simultaneously run. The final concentration of vehicle per well in this and all the experiments described herein was 1% v/v. […] The images were obtained with an inverted microscope and analyzed with the ImageJ software. The tubular structures were quantified. The percentages of inhibition (I%) were calculated as I% = [1−(total tube length treatment/total tube length control)] × 100. Each condition was assessed in triplicate. Each experiment was performed independently three times.

BAEC cells = test: Matrigel (Boyden chamber) invasion assay, BAEC; assay type: cell-based, bovine; conditions: 24 h, VEGF 10 ng/ml chemoattractant, relative to control
MDA-MB-231 cells = test: Matrigel (Boyden chamber) invasion assay, MDA-MB-231; assay type: cell-based, human; conditions: 30 μM, 16 h, 10% FBS chemoattractant
PKC-α = conditions: cited from earlier work; for Log(IC50/M): given as log of IC50 in M (negative)
PKC-β = conditions: cited from earlier work; for Log(IC50/M): given as log of IC50 in M (negative)
[2] = tested on: 1:1 mixture of recombinant PKC-α and -β2 isozymes; conditions: 1:1 mixture α and β, cited from earlier work; for Log(IC50/M): given as log of IC50 in M (negative)

SMILES: Cc1ccc(-c2ccc(C#CCCO)s2)s1 [Compound 1, 5′-methyl-[5-(4-hydroxy-1-butynyl)]-2,2′-bithiophene]
- antiangiogenic activity in tube formation [1]: devoid of activity

SMILES: OCCC#Cc1ccc(-c2cccs2)s1 [Compound 2, 5-(4-hydroxybut-1-ynyl)-2,2′-bithiophene]
- antiangiogenic activity in tube formation [1]: devoid of activity

SMILES: OCc1ccc(-c2ccc(-c3cccs3)s2)s1 [Compound 3, 5-hydroxymethyl-2,2':5′,2″-terthiophene]
- IC50 ([1]; conversion of the μM value, read-out: IC50 tube formation expressed): ~0.8 µg/mL
- IC50 ([1]; pure compound, VEGF-induced, 18 h, read-out: IC50 tube formation): 2.7 ± 0.4 µM
- antiangiogenic effect compared with axitinib 10 μM ([1]; at 1.2 μM, p > 0.05): comparable to that of 10 μM of the potent angiogenesis inhibitor axitinib
- invasive cells (BAEC cells; 10 μM): 15.7 ± 2.5%
- invasive cells (BAEC cells; 30 μM): 1.6 ± 0.4%
- reduction of cell invasion (MDA-MB-231 cells): 32.7 ± 3.1%
- Log(IC50/M) (PKC-α; listed for PKC α, ref Kim et al. (1998)): −5.3979
- Log(IC50/M) (PKC-β; listed for PKC β, ref Kim et al. (1998)): −5.3979
- IC50 (PKC-β; listed for PKC β, source assay used 1:1 mixture of PKC-α and -β2, ref Kim et al. (1998)): 4 µM
- IC50 ([2]; ref Kim et al. (1998)): 4 µM

SMILES: O=Cc1ccc(-c2ccc(-c3ccc(C=O)s3)s2)s1 [DAT]
- IC50 ([2]; ref Kim et al. (1998)): 0.3 µM
- Log(IC50/M) ([2]; ref Kim et al. (1998)): −6.5229

SMILES: N=C(N)NCCNS(=O)(=O)c1cccc2cnccc12 [H4, N-(2-guanidinoethyl)isoquinoline-5-sulfonamide]
- IC50 ([2]; ref Kinsella et al. (1992)): 10 µM
- Log(IC50/M) ([2]; ref Kinsella et al. (1992)): −5.0000

SMILES: CC1CNCCN1S(=O)(=O)c1cccc2cnccc12 (stereo not drawn) [H7, 1-(5-Isoquinolinesulfonyl)-2-methylpiperazine]
- IC50 ([2]; ref Kinsella et al. (1992)): 40 µM
- Log(IC50/M) ([2]; ref Kinsella et al. (1992)): −4.3979

SMILES: CN1CCN(c2nc(C3=C(c4c[nH]c5ccccc45)C(=O)NC3=O)c3ccccc3n2)CC1 [NVP, 3-(1H-indol-3-yl)-4-[2-(4-methylpiperazin-1-yl)quinazolin-4-yl]-1H-pyrrole-2,5-dione]
- Log(IC50/M) (PKC-α; PKC α, ref Evenou et al. (2009)): −9.0223

SMILES: c1csc(-c2ccc(-c3cccs3)s2)c1 [TT, Terthiophene]
- IC50 ([2]; ref Kim et al. (1998)): 10 µM
- Log(IC50/M) ([2]; ref Kim et al. (1998)): −5.0000
